Molecular target: T1, FSHR (Homo sapiens, UniProt P23945)
T1 construct: expressed in transfected cells; host or cells: CHO (Cho-FSHR-LUC-1-1-43)
Experiment: EC50 of cyclic AMP production in CHO FSHR cells + EC20 FSH (Assay A)
Type: cell-based
Settings: Table 1; for EC50: CHO FSHR cells + EC20 FSH, read-out: Assay A EC50 of cyclic AMP production; for activation at 5 µM: 1 h, effect relative to maximum response of the FSH standard
Description: Example 10: EC50 of Cyclic AMP Production in CHO FSHR Cells+EC20 FSH (Assay A)
2500 Cho-FSHR-LUC-1-1-43 cells were plated per well in 5 μl of phenol red free DMEM/F12+1% FBS. Cells were plated in 384 well, solid white low volume plates (Greiner 784075) by Multidrop. Cells were assayed by adding 100 μl of 2×EC20 FSH/IBMX in DMEM/F12+0.1% BSA) by Multidrop to 2 μl of test compound stamped in 384 well plates (compounds are diluted 1:50). The final FSH concentration was […], and the final IBMX concentration was 200 μM. The compound plate map was as follows: Column 1: 2 μl of DMSO; Column 2: 2 μl of DMSO; Columns 3-12 and 13-24: 2 μl of test compound, diluted 1:4 in 100% DMSO, or 2 μl of FSH, diluted 1:4 in DMEM/F12+0.1% BSA. The starting concentration for FSH was 50 nM (final concentration was 0.5 nM). […] 5 μl of compound+EC20 FSH mixture were transferred to cell plates (1:2 dilution into 5 μl of cell media) The plates were incubated at 37° C. for 1 h. 10 μl of mixed HTRF (CisBio #62AM4PEC) reagents were added per well and incubated at room temperature for 1 h. The plates were read on Envision using the cAMP HTRF—low volume 384 well protocol. The readout was the calculated fluorescence ratio (665 nm/620 nm). Values given in percent (%) indicate the percental effect (response) at a certain concentration of agonist relative to the maximum response of the FSH standard.

T1 sequence (P23945 18-695): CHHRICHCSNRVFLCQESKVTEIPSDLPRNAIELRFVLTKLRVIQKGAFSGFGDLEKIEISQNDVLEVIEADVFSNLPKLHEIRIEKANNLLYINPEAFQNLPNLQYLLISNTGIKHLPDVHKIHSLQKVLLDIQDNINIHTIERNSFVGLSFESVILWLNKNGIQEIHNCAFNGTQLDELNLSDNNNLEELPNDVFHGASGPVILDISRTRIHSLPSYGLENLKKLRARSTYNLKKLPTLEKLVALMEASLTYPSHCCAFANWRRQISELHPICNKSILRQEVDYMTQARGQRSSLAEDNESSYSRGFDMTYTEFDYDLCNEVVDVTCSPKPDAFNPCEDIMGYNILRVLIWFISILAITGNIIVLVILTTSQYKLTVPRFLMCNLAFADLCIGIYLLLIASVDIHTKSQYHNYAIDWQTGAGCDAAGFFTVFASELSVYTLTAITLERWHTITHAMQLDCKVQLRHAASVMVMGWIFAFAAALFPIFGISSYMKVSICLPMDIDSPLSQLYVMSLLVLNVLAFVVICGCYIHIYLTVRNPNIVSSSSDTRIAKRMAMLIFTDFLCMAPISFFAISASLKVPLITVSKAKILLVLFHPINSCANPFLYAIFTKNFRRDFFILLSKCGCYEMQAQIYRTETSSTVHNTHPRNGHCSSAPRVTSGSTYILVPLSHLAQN
T1 sequence (P01215 25-116 partner): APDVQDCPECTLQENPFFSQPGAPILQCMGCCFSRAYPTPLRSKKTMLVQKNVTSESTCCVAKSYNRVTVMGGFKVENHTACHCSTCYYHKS
T1 sequence (P01225 19-129 partner): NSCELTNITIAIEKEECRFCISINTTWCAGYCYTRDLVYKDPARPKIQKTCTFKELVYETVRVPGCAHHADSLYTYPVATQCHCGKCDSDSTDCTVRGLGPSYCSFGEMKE

Row | EC50 [nM] | activation at 5 µM [%] | SMILES
1 | 1000 to 10000 |  | Cc1ccccc1C(=O)Nc1cc(C(=O)NCCCN2CCCC2=O)ccc1N1CCN(c2ccccc2C)CC1 [Compound 111]
2 |  | 21 | Cc1ccccc1N1CCN(c2ccc(C(=O)NCCCN3CCCC3=O)cc2NC(=O)c2cccc3c2CCCC3)CC1 [Compound 112]
3 |  | 40 | Cc1ccccc1N1CCN(c2ccc(C(=O)NCCCN3CCCC3=O)cc2NC(=O)c2ccc3ccn(C)c3c2)CC1 [Compound 114]
4 |  | 39 | Cc1ccccc1N1CCN(c2ccc(C(=O)NCCCN3CCCC3=O)cc2NC(=O)c2cccc3nccnc23)CC1 [Compound 115]
5 | 100 to 1000 |  | Cc1ccccc1N1CCN(c2ccc(C(=O)NCCCn3ccnc3)cc2NC(=O)c2ccco2)CC1 [Compound 116]
6 | 1000 to 10000 |  | Cc1ccccc1N1CCN(c2ccc(C(=O)NCCCN3CCCC3)cc2NC(=O)c2ccco2)CC1 [Compound 117]
7 | 100 to 1000 |  | Cc1ccccc1N1CCN(c2ccc(C(=O)NCCCn3ccnc3C)cc2NC(=O)c2ccco2)CC1 [Compound 118]
8 | 100 to 1000 |  | Cc1ccccc1N1CCN(c2ccc(C(=O)NCCS(=O)(=O)N3CCCC3)cc2NC(=O)c2ccco2)CC1 [Compound 119]
9 | 100 to 1000 |  | Cc1ccccc1N1CCN(c2ccc(C(=O)NCCC(=O)N3CCCC3)cc2NC(=O)c2ccco2)CC1 [Compound 120]
10 |  | 24 | COc1ccc(CNC(=O)c2ccc(N3CCN(c4ccccc4C)CC3)c(NC(=O)c3ccco3)c2)cc1 [Compound 122]
11 |  | 82 | COc1ccccc1CNC(=O)c1ccc(N2CCN(c3ccccc3C)CC2)c(NC(=O)c2ccco2)c1 [Compound 124, Furan-2-carboxylic acid [5-(2-methoxy-benzylcarbamoyl)-2-(4-o-tolyl-piperazin-1-yl)-phenyl]-amide]
12 |  | 33 | O=C(NCCCN1CCCC1=O)c1ccc(N2CCN(c3ccccn3)CC2)c(NC(=O)c2ccco2)c1 [Compound 126]
13 |  | 33 | COc1ccc(C(=O)Nc2cc(C(=O)NCCCN3CCCC3=O)ccc2N2CCN(c3ccccc3C)CC2)cc1OC [Compound 127]
14 | 100 to 1000 |  | Cc1ccccc1N1CCN(c2ccc(C(=O)NCCCN3CCCC3=O)cc2NC(=O)c2ccc(Cl)cn2)CC1 [Compound 129]
15 | 1000 to 10000 |  | Cc1ccc(C(=O)Nc2cc(C(=O)NCCCN3CCCC3=O)ccc2N2CCN(c3ccccc3F)CC2)o1 [Compound 130, 5-Methyl-furan-2-carboxylic acid {2-[4-(2-fluoro-phenyl)-piperazin-1-yl]-5-[3-(2-oxo-pyrrolidin-1-yl)-propylcarbamoyl]-phenyl}-amide]
16 | 100 to 1000 |  | Cc1ccccc1N1CCN(c2ccc(C(=O)NCc3ccc(Cl)cc3)cc2NC(=O)c2ccco2)CC1 [Compound 131, Furan-2-carboxylic acid [5-(4-chloro-benzylcarbamoyl)-2-(4-o-tolyl-piperazin-1-yl)-phenyl]-amide]
17 | 1000 to 10000 |  | CNCCNC(=O)c1ccc(N2CCN(c3ccccc3C)CC2)c(NC(=O)c2ccco2)c1 [Compound 132, Furan-2-carboxylic acid [5-(2-methylamino-ethylcarbamoyl)-2-(4-o-tolyl-piperazin-1-yl)-phenyl]-amide]
18 | 100 to 1000 |  | CCC(C)(C)C(=O)N(C)CCNC(=O)c1ccc(N2CCN(c3ccccc3C)CC2)c(NC(=O)c2ccco2)c1 [Compound 133, Furan-2-carboxylic acid [5-{2-[(2,2-dimethyl-butyryl)-methyl-amino]-ethylcarbamoyl}-2-(4-o-tolyl-piperazin-1-yl)-phenyl]-amide]
19 | 1000 to 10000 |  | Cc1ccccc1N1CCN(c2ccc(C(=O)NCCN(C)C(=O)c3ccc4c(c3)OCO4)cc2NC(=O)c2ccco2)CC1 [Compound 134, Benzo[1,3]dioxole-5-carboxylic acid {2-[3-[(furan-2-carbonyl)-amino]-4-(4-o-tolyl-piperazin-1-yl)-benzoylamino]-ethyl}-methyl-amide]
20 |  | 41 | Cc1ccccc1N1CCN(c2ccc(C(=O)NCCCN3CCCC3=O)cc2NC(=O)c2cc(C)c(C)o2)CC1 [Compound 138]
21 | 100 to 1000 |  | CCc1ccc(C(=O)Nc2cc(C(=O)NCCCN3CCCC3=O)ccc2N2CCN(c3ccccc3C)CC2)o1 [Compound 140]
22 | 100 to 1000 |  | COc1ccc(C(=O)Nc2cc(C(=O)NCCCN3CCCC3=O)ccc2N2CCN(c3ccccc3C)CC2)o1 [Compound 141]

Row | EC50 [nM] | activation at 5 µM [%] | SMILES
23 | 1000 to 10000 |  | Cc1ccc(C(=O)Nc2cc(C(=O)N[C@@H]3CCN(C(=O)OC(C)(C)C)C3)ccc2N2CCN(c3ccccc3C)CC2)o1 [Compound 142, (R)-3-[3-[(5-Methyl-furan-2-carbonyl)-amino]-4-(4-o-tolyl-piperazin-1-yl)-benzoylamino]-pyrrolidine-1-carboxylic acid tert-butyl ester]
24 |  | 16 | Cc1ccccc1N1CCN(c2ccc(C(=O)NCCCN3CCCC3=O)cc2NC(=O)c2cnoc2C(C)C)CC1 [Compound 145]
25 | > 10000 |  | Cc1ccccc1N1CCN(c2ccc(C(=O)NCCCN3CCCC3=O)cc2NC(=O)c2cccc(O)c2)CC1 [Compound 146]
26 | 100 to 1000 |  | Cc1ccccc1N1CCN(c2ccc(C(=O)NCCCn3cccc3)cc2NC(=O)c2ccco2)CC1 [Compound 148]
27 |  | 24 | Cc1ccccc1N1CCN(c2ccc(C(=O)NCCCn3ccc4ccccc43)cc2NC(=O)c2ccco2)CC1 [Compound 149]
28 | 100 to 1000 |  | Cc1ccccc1N1CCN(c2ccc(C(=O)NCC(=O)NC3CCCC3)cc2NC(=O)c2ccco2)CC1 [Compound 151]
29 | 100 to 1000 |  | Cc1ccccc1N1CCN(c2ccc(C(=O)NCCCc3ccncc3)cc2NC(=O)c2ccco2)CC1 [Compound 153]
30 | 1000 to 10000 |  | Cc1ccccc1N1CCN(c2ccc(C(=O)NCC3(CN4CCCC4)CC3)cc2NC(=O)c2ccco2)CC1 [Compound 154]
31 | 100 to 1000 |  | Cc1ccccc1N1CCN(c2ccc(C(=O)NCCCN3C(=O)CN(C)C3=O)cc2NC(=O)c2ccco2)CC1 [Compound 156]
32 | 100 to 1000 |  | Cc1ccccc1N1CCN(c2ccc(C(=O)NCCC3C[C@H]4CC[C@@H]3C4)cc2NC(=O)c2ccco2)CC1 (some centres unmarked) [Compound 157]
33 | 1000 to 10000 |  | Cc1ccccc1N1CCN(c2ccc(C(=O)NCCCN3CCCC3=O)cc2NC(=O)c2ncccc2F)CC1 [Compound 160]
34 | 100 to 1000 |  | Cc1ccccc1N1CCN(c2ccc(C(=O)NCCCN3CCCC3=O)cc2NC(=O)c2ccc(F)cc2F)CC1 [Compound 161]
35 | 100 to 1000 |  | Cc1ccc(C(=O)Nc2cc(C(=O)NCCCN3CCCC3=O)ccc2N2CCN(c3ccccc3C)CC2)s1 [Compound 162]
36 |  | 8 | Cc1ccccc1N1CCN(c2ccc(C(=O)NCCCN3CCCC3=O)cc2NC(=O)c2cccc(C(N)=O)c2)CC1 [Compound 163]
37 | 1000 to 10000 |  | CC(=O)Nc1ccc(C(=O)Nc2cc(C(=O)NCCCN3CCCC3=O)ccc2N2CCN(c3ccccc3C)CC2)o1 [Compound 164]
38 | > 10000 |  | Cc1ccc(C(=O)Nc2cc(C(=O)NCCCN3CCCC3=O)ccc2N2CCC(c3ccccc3C)CC2)o1 [Compound 165, 5-Methyl-furan-2-carboxylic acid [5-[3-(2-oxo-pyrrolidin-1-yl)-propylcarbamoyl]-2-(4-o-tolyl-piperidin-1-yl)-phenyl]-amide]
39 |  | 20 | COc1ccccc1N1CCN(c2ccc(C(=O)NCCCN3CCCC3=O)cc2NC(=O)c2ccco2)CC1 [Compound 166]
40 | 1000 to 10000 |  | Cc1ccc(C(=O)Nc2cc(C(=O)NCCCN3CCCC3=O)ccc2N2CCN(c3ccccc3)CC2)o1 [Compound 167, 5-Methyl-furan-2-carboxylic acid [5-[3-(2-oxo-pyrrolidin-1-yl)-propylcarbamoyl]-2-(4-phenyl-piperazin-1-yl)-phenyl]-amide]
41 |  | 32 | Cc1ccc(C(=O)Nc2cc(C(=O)NCc3cccc(Br)c3)ccc2N2CCN(c3ccccc3C)CC2)o1 [Compound 170]
42 | 1000 to 10000 |  | COc1ccc(CNC(=O)c2ccc(N3CCN(c4ccccc4C)CC3)c(NC(=O)c3ccc(C)o3)c2)cc1OC [Compound 171, 5-Methyl-furan-2-carboxylic acid [5-(3,4-dimethoxy-benzylcarbamoyl)-2-(4-o-tolyl-piperazin-1-yl)-phenyl]-amide]
43 | 1000 to 10000 |  | COc1ccc(-c2c[nH]nc2CNC(=O)c2ccc(N3CCN(c4ccccc4C)CC3)c(NC(=O)c3ccc(C)o3)c2)cc1 [Compound 172, 5-Methyl-furan-2-carboxylic acid [5-{[4-(4-methoxy-phenyl)-1H-pyrazol-3-ylmethyl]-carbamoyl}-2-(4-o-tolyl-piperazin-1-yl)-phenyl]-amide]
44 | 1000 to 10000 |  | COc1ccccc1N1CCN(c2ccc(C(=O)NCCCN3CCCC3=O)cc2NC(=O)c2ccc(C)o2)CC1 [Compound 173, 5-Methyl-furan-2-carboxylic acid {2-[4-(2-methoxy-phenyl)-piperazin-1-yl]-5-[3-(2-oxo-pyrrolidin-1-yl)-propylcarbamoyl]-phenyl}-amide]

— patent publication US9938262B2, “Benzamides” (Merck Patent GmbH, priority 2011, dated 2018)
